Experimental findings from patent publication US7208482B2, “9-aminoacyl tetracycline compounds and methods of use thereof” (Paratek Pharmaceuticals, Inc., priority 2001, dated 2007) are described below.

Converted amounts (≈) assume the structure as drawn.

Holding throughout (experiment): MIC, broth microdilution growth inhibition
Common to all, as to type: cell-based
Holding throughout (details): Mueller-Hinton broth, 5×10^5 CFU/ml, 37° C., 18 h
Background: In broth dilution the organism is exposed to a series of concentrations in liquid medium.

Assay [1] relates to S. pneumoniae ATCC 49619. How it is done:
(§1) Growth-inhibitory activity was determined on liquid medium by the antibiotic dilution technique using 96-well microtiter system plates containing two-fold dilutions of antibiotic-agent in 0.2 ml. of Mueller-Hinton broth. Plates were inoculated with each test organism to yield a final inoculum of 5×10^5 CFU/ml and were incubated aerobically at 37° C. for 18 h. The MIC was defined as the lowest concentration of antibacterial agent that inhibited development of visible growth in the microdilution wells.

Assay [2] has as its system S. aureus RN450. The method, then:
as §1

Assay [3] has as its system M. catarrhalis ATCC 23246. The method, then:
as §1

The subject of assay [4] is S. aureus ATCC 29213. The method, then: as §1
Assay [5] deals with S. aureus RN4250. How it is done: as §1
The test system of assay [6] is E. hirae ATCC 9790. The method, then:
as §1

Assay [7] relates to E. coli 1850E. The method, then:
as §1

For assay [8], the system named is H. influenzae ATCC 49247. The method, then: as §1
Assay [9] concerns S. pneumoniae 157E. The method, then: as §1
The test system of assay [10] is S. aureus ATCC 13709. The method, then:
as §1

Assay [11] concerns E. coli ATCC 25933. How it is done:
as §1

Turning to `CCOC(=O)CNc1cc(N(C)C)c2c(c1O)C(=O)C1=C(O)[C@]3(O)C(=O)C(C(N)=O)=C(O)[C@@H](N(C)C)[C@@H]3C[C@@H]1C2` [Example 1, [4S-(4a,5a,12a)]-4,7-Bis(dimethylamino)-9-[(ethoxycarbonyl)methyl]amino-1,4,4a,5,5a,6,11,12a-octahydro-3,10,12,12a-tetrahydroxy-1,11-dioxo-2-naphtacenecarboxamide], the MIC stood at 32 µg/mL (≈ 57.3 µM) in assay [1]; 16 µg/mL (≈ 28.6 µM) in assay [2]; 4 µg/mL (≈ 7.16 µM) in assay [3]; 16 µg/mL (≈ 28.6 µM) in assay [4]; 16 µg/mL (≈ 28.6 µM) in assay [5]; 8 µg/mL (≈ 14.3 µM) in assay [6]. Also, the MIC in assay [7] and in assay [8] was 32 µg/mL (≈ 57.3 µM) throughout.
Turning to `CCOC(=O)C(C)Nc1ccc2c(c1O)C(=O)C1=C(O)[C@]3(O)C(=O)C(C(N)=O)=C(O)[C@@H](N(C)C)[C@@H]3[C@@H](O)[C@@H]1[C@H]2C` (stereo partly drawn) [Example 2, [4S-(4a,5,5a,6,12a)]-4-(Dimethylamino)-9-[1-(ethoxycarbonyl)ethyl]amino-1,4,4a,5,5a,6,11,12a-octahydro-3,5,10,12,12a-pentahydroxy-6-methyl-1,11-dioxo-2-naphtacenecarboxamide], the MIC in assay [9] was found to be 1 µg/mL (≈ 1.79 µM); in assay [1] it was 0.5 µg/mL (≈ 0.894 µM); in assay [2], 0.25 µg/mL (≈ 0.447 µM); in [3], 1 µg/mL (≈ 1.79 µM); in [10], 0.5 µg/mL (≈ 0.894 µM); in assay [5], 2 µg/mL (≈ 3.57 µM). The MIC is 0.25 µg/mL (≈ 0.447 µM) in assay [6], 64 µg/mL (≈ 114 µM) in [7] and 32 µg/mL (≈ 57.2 µM) in [8].
Turning to `CCOC(=O)CNc1ccc2c(c1O)C(=O)C1=C(O)[C@]3(O)C(=O)C(C(N)=O)=C(O)[C@@H](N(C)C)[C@@H]3[C@@H](O)[C@@H]1[C@H]2C` [Example 3, [4S-(4a,5,5a,6,12a)]-4-(Dimethylamino)-9-[(ethoxycarbonyl)methyl]amino-1,4,4a,5,5a,6,11,12a-octahydro-3,5,10,12,12a-pentahydroxy-6-methyl-1,11-dioxo-2-naphtacenecarboxamide], the MIC in assay [1] came to 0.5 µg/mL (≈ 0.917 µM); in [2] it was 0.5 µg/mL (≈ 0.917 µM); in assay [3], 2 µg/mL (≈ 3.67 µM); in assay [10] it was 1 µg/mL (≈ 1.83 µM); in [5] it was 2 µg/mL (≈ 3.67 µM); in [6] it was 1 µg/mL (≈ 1.83 µM). Besides, the MIC in [7] was determined as 32 µg/mL (≈ 58.7 µM); in assay [8] it was 8 µg/mL (≈ 14.7 µM).
As to `C[C@H]1c2ccc(NCC(=O)N(C)C)c(O)c2C(=O)C2=C(O)[C@]3(O)C(=O)C(C(N)=O)=C(O)[C@@H](N(C)C)[C@@H]3[C@@H](O)[C@@H]21` [Example 4, [4S-(4a,5,5a,6,12a)]-4-(Dimethylamino)-9-[(N,N-dimethylaminocarbonyl)methyl]amino-1,4,4a,5,5a,6,11,12a-octahydro-3,5,10,12,12a-pentahydroxy-6-methyl-1,11-dioxo-2-naphtacenecarboxamide], the MIC worked out at 0.06 µg/mL (≈ 0.11 µM) in assay [1], 0.5 µg/mL (≈ 0.918 µM) in assay [4], 2 µg/mL (≈ 3.67 µM) in assay [11] and 2 µg/mL (≈ 3.67 µM) in [8].
